Molecules are shown by their SMILES. Bounds are passed on as bounds.

One assay concerns the target T1, Androgen receptor (Homo sapiens, UniProt P10275).
T1 sequence (P10275 whole entry): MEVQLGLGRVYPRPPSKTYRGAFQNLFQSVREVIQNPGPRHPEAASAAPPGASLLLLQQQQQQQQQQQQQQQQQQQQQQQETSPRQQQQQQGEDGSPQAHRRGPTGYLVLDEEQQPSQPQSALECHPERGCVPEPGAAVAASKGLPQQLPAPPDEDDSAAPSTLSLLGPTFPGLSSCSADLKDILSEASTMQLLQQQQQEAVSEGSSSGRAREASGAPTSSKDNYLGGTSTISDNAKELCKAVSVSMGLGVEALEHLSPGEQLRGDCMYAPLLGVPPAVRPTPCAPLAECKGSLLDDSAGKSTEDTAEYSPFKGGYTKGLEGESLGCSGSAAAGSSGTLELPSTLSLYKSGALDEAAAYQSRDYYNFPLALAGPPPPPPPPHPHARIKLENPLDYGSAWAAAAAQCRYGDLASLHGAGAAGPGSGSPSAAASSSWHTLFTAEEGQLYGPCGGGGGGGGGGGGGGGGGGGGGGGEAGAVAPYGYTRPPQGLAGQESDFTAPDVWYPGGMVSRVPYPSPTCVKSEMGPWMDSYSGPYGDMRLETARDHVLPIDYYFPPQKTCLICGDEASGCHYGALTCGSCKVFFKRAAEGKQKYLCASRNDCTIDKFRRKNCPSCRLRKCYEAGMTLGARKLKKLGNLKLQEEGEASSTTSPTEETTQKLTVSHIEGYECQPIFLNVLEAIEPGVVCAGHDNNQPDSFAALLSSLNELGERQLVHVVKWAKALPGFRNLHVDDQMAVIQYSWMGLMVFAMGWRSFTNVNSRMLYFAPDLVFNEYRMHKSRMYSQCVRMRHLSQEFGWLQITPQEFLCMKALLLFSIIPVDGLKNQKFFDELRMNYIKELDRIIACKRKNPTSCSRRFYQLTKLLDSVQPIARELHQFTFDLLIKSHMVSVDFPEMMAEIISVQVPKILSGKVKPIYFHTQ
Nature of the assay: Antagonist activity at human androgen receptor transfected in African green monkey CV-1 cells cotransfected with genetic response element-luciferase reporter gene assessed as inhibition of 5alpha-dihydro-11-keto testosterone induced response incubated for 22 hrs by luciferase detection reagent based assay. The assay is classed as cell-based. Background: A reporter such as luciferase makes a cellular process visible.

A short description of assay [1]: Inhibition of TNF alpha production in recombinant human IL-1 beta induced A549 cells assessed as maximum inhibition preincubated with compound for 1 hr followed by IL-1 beta addition and measured after 20 hrs by MSD assay relative to control. It counts as functional. As to conditions: time 21 hrs.
A short description of assay [2]: Inhibition of IL-6 production in recombinant human IL-1 beta induced A549 cells assessed as maximum inhibition preincubated with compound for 1 hr followed by IL-1 beta addition and measured after 20 hrs by MSD assay relative to control. It counts as functional. The conditions noted are these: time 21 hrs.

The IC50 is the point on the concentration scale where inhibition reaches its midpoint. Take `Cc1ncncc1Nc1ccc2c(c1)CCC1=C3C[C@H](O)C[C@]3(C)CC[C@]12Cc1ccccc1`: the IC50 at Androgen receptor was > 10000 nM. In the case of `Cc1ncncc1Nc1ccc2c(c1)CCC1=C3C[C@@H](O)C[C@]3(C)CC[C@]12Cc1ccccc1`, at Androgen receptor, the IC50 was > 10000 nM. Consider `Cc1ncccc1NC(=O)c1ccc2c(c1)C(=O)C[C@@H]1C[C@@](O)(c3ccccc3)[C@H](O)C[C@@]21Cc1ccccc1`, for which the “inhibition (INH)” value in assay [1] and in assay [2] was 60% throughout. As to `Cc1ncccc1Nc1ccc2c(c1)CCC1=C3C[C@@H](O)C[C@]3(C)CC[C@]12C`, the IC50 at Androgen receptor was 401 nM.

Turning to `Cc1ncccc1Nc1ccc2c(c1)CCC1=C3C[C@@H](O)C[C@]3(C)CC[C@]12Cc1ccccc1`, at Androgen receptor, the half-inhibitory concentration (IC50) came out at 174 nM. Turning to `Cc1ncccc1NC(=O)c1ccc2c(c1)CC[C@@H]1C[C@@](O)(C(F)(F)F)CC[C@@]21Cc1ccccc1` [DAGROCORAT], the “inhibition (INH)” value in assay [1] and in assay [2] was 60% in each case. In the case of `C[C@@H]1C[C@H]2[C@@H]3CCC4=CC(=O)C=C[C@]4(C)[C@@]3(F)[C@@H](O)C[C@]2(C)[C@@]1(O)C(=O)CO` [DEXAMETHASONE], the results for the Imax in assay [1] and in assay [2] were 100% and 98%, respectively. `CC#C[C@]1(O)CC[C@H]2[C@@H]3CCC4=CC(=O)CCC4=C3[C@@H](c3ccc(N(C)C)cc3)C[C@@]21C` [MIFEPRISTONE]: the “inhibition (INH)” value in assay [2] was <20%.
